Broadly, the melting point is the temperature, or range, at which the solid turns liquid.

On to `O=C1Nc2ccccc2C(c2ccccc2)=NC1NC(=S)c1cccc(C(F)(F)F)c1` (racemic), for which the melting point lay within 230 to 232 °C.
As for `O=C(CCc1ccccc1)Nc1c(Cl)ccc2nc(N3CCNCC3)ccc12`, the figure is 231 to 234 °C; as for `CCCCCCn1c2ccc(C)cc2c(=O)c2c1cnn2C`, 80 to 82 °C; as for `Cc1cccc2nc(-c3cc(C(F)F)nn3-c3ccc(S(N)(=O)=O)cc3)sc12`, 264 to 265 °C.
As for `COc1ccc(C2CC(=O)c3c(C)coc3C2)cc1` (configuration not stated), the figure is 82 to 83 °C.
Regarding `CNc1c(F)cc2c(=O)c(C(=O)O)cn(-c3ccc(F)c(N)c3)c2c1Cl`, the melting point lay within 162 to 166 °C.
As for `c1ccc(-c2cc3n(n2)CCNC3CC2CCCCC2)cc1` (racemic), the figure is 128 to 130 °C.
As for `CCOC(=O)COc1ccc2c(=O)c3c(oc2c1)C(=Cc1ccccc1)CC3`, the figure is 152 to 154 °C; as for `CCn1c(=O)ccc2cnc(Nc3ccc(OC)cc3)nc21`, 196 to 197 °C.
As for `COc1ccc(C(=O)NCCc2cccc(C)c2)cc1OC`, the figure is 108 to 109 °C; as for `O=C(CCc1ccccc1)Nc1ccc(C(=O)O)c(O)c1`, 165 to 167 °C; as for `O=C(O)CCc1ccc2c(c1)OC[C@@H](Cc1ccccc1)[C@@H]2O` (relative stereo), 161 to 162 °C.
`COc1ccc2c3c(cn2S(=O)(=O)c2ccc(C)cc2)CC(NC(=O)C(F)(F)F)C(=O)c13` (configuration not stated) displayed a melting point of 189 to 190 °C.
Molecule `CC(C)(C)CNc1nc(Cl)ncc1CN=[N+]=[N-]` returned a melting point of 133 to 136 °C.
`CC(=O)Nc1ccc(OC(=O)CCl)cc1` returned a melting point of 186 °C.
As for `CC(C)c1ccc2c(c1)c(=O)[nH]c1c2c2ccccc2n1C`, the figure is 315 to 325 °C; as for `COc1ccc(CCNc2nc(Cl)ccc2N)cc1OC`, 90 to 91 °C.
`Cc1c(CN2CCc3c(c4cccc(F)c4n3C)C2=O)ncn1C(=O)OCc1ccccc1` came in with a melting point of 126 to 128 °C.
As for `NC(=O)c1ccc(F)c2c1CC(NCCCc1c[nH]c3ccc(F)cc13)CO2` (configuration not stated), the figure is 122 °C; as for `O=[N+]([O-])c1cccc(-c2cc(Cc3ccc(F)cc3)cc(/C=N/O)c2O)c1`, 157 to 159 °C; as for `CCOC(=O)C(C#N)=Cc1cc(O)c(O)c([N+](=O)[O-])c1`, 205 to 210 °C.
As for `CP(=O)(O)C(CCc1ccccc1)NC(=O)C(F)(F)F` (configuration not stated), the figure is 138 to 145 °C; as for `O=[N+]([O-])c1cc(C(F)(F)F)ccc1Sc1ccc(O)cc1`, 131 to 134 °C; as for `CN(C)c1cc2ccccn2n1`, 51 to 52 °C.
In the case of `CCOC(=O)c1n[nH]c(CC)c1Sc1cc(Cl)cc(Cl)c1`, the melting point was 138 to 139 °C.
As for `COc1cc(OC)c(NC2=Nc3ccccc3CS2)cc1Cl`, the figure is 157 to 158 °C; as for `Cn1c(=S)ccn(C2OC(CO)C(O)C2O)c1=O` (configuration not stated), 146 to 148 °C.
As for `CC(C)(CC(O)(C(=O)Nc1ccccc1)C(F)(F)F)c1cc(F)ccc1O` (configuration not stated), the figure is 124 to 126 °C; as for `Cc1ccc2ccc(C(=O)NCc3ccc(Cl)cc3)c(O)c2n1`, 95 to 98 °C.
As for `Fc1cccc(F)c1Cn1c(-c2ccccc2)nc2ccccc21`, the figure is 163 °C; as for `O=S1c2ccccc2C(CCCl)(CCCl)c2ccccc21`, 126 to 127 °C; as for `C=CCN1C2CCC1C1CCC2N1C(c1ccc(C(=O)N(C)C)cc1)c1cccc(OC)c1` (configuration not stated), 100 to 103 °C.
`CNc1nc(Cl)ccc1[N+](=O)[O-]` showed a melting point of 114 °C.
Molecule `COC(=O)C(c1ccccc1)C1CCN(c2ccc(NC(=O)c3ccccc3-c3ccc(C(F)(F)F)cc3)cc2)CC1` (configuration not stated) showed a melting point of 151 °C.
As for `CCCCCCCC(=O)NC(=O)OCc1nc(C(C)C)c(Sc2cc(Cl)cc(Cl)c2)n1Cc1ccncc1`, the figure is 139 to 141 °C; as for `N#Cc1cc(N)c(N)c(C#N)c1`, 240 to 244 °C.
As for `CCN(CC)C(=O)c1c(C(F)F)ccc(F)c1[Si](C)(C)C`, the figure is 65 to 67 °C.
As for `CCCOc1ccccc1-c1nc2nc(NCCCO)ncc2c(=O)[nH]1`, the figure is 185 to 186 °C.
For `CC(=O)N1CCC(O)(Cn2nc(-c3c(-c4ccccc4)nn4ccccc34)ccc2=O)CC1`, the melting point was 163 to 165 °C.
As for `CC(C)S(=O)(=O)c1ccccc1S(N)(=O)=O`, the figure is 150 to 153 °C.
As for `Oc1c(C(Nc2ccc(Cl)cn2)c2ccccn2)ccc2cccnc12` (configuration not stated), the figure is 160 to 162 °C.
Molecule `CCCCn1c(=O)n(CCC)c(=O)c2c(NC(C)=O)n[nH]c21` registered a melting point of 156 to 158 °C.
As for `C=C(CC1(C)C(=O)CCC1=O)C1=CCCc2cc(OC)ccc21`, the figure is 81 to 82 °C; as for `Cc1nc(C=Cc2nc3ccc(F)cc3c(=O)n2-c2cccnc2C)cs1`, 223 to 224 °C; as for `CC1=C(C(=O)OCCOC(C)C)C(c2cccc(Cl)c2Cl)C(c2nnco2)=C(C)N1` (configuration not stated), 151 to 154 °C.
For the molecule `COc1ccc(C(OCC2OC(n3cnc4c(NC(=O)c5ccccc5)ncnc43)C(O)C2O[Si](C)(C)C(C)(C)C)(c2ccccc2)c2ccccc2)cc1` (configuration not stated), the melting point was 189 °C.
With `CCN(CC)Cc1nc2cc(OC)c(OC)cc2c(-c2ccc(OC)c(OC)c2)c1C(C)=O`, the melting point is 146 to 148 °C.
As for `C#Cc1ccc(NC(=O)N[C@H](CCC)C(=O)Nc2ccc(N3CCOCC3=O)cc2)cc1`, the figure is 182 °C; as for `Cc1ccc(Oc2ccccc2-n2cnnn2)c(O)c1`, 157 to 160 °C; as for `CC(=O)OC1CCC2(C)C(=CC(=NO)C3C2CCC2(C)C(OC(C)=O)CCC32)C1` (configuration not stated), 236 to 238 °C.
For the molecule `CC(C)(C)OC(=O)C(C)(C)ON=C1C=CC=CC1CC(=O)O` (configuration not stated), the melting point is 102 to 105 °C.
As for `COc1ccc(C(=O)c2ccc(OCCc3nc(-c4ccccc4)oc3C)cc2)c(OC(C)(C)C(=O)O)c1`, the figure is 81 to 82 °C; as for `CC(C)(C)c1cc(CCc2ccccc2NC(=O)NC2CCN(Cc3ccc(F)c(F)c3)CC2)cc(C(C)(C)C)c1O`, 155 to 156 °C.
As for `O=C1c2cc([N+](=O)[O-])ccc2CC1Br` (configuration not stated), the figure is 102 to 105 °C; as for `CN1C(=O)C2(COc3cc4c(cc32)OCCO4)c2c(NC(=O)NC3CCCCC3)cccc21` (configuration not stated), 175 to 177 °C; as for `CC(C)(NSc1nc2ccccc2s1)c1ccccc1`, 88 to 90 °C.
As for `COc1cc2c(c(OC)c1OC)C=C(C=CC(=O)N1CCC(C3CCN(C(=O)C=CC4=Cc5c(cc(OC)c(OC)c5OC)CC4)CC3)CC1)CC2`, the figure is 253 to 256 °C; as for `C1=C(c2nc(-c3ccccc3)no2)CCN(Cc2c[nH]c3ncccc23)C1`, 207 to 209 °C; as for `CCOc1nn(-c2ccc(C(F)(F)F)cn2)cc1CCCOc1cc(OC)ccc1CCC(=O)O`, 115 to 116 °C.
Molecule `C=CC(=O)NC(=O)NCCS(=O)(=O)C=C` returned a melting point of 177 to 179 °C.
As for `O=C(O)c1ccc(C(F)(F)C(F)(F)F)cc1[N+](=O)[O-]`, the figure is 124 to 135 °C; as for `CCc1nnc(-c2ccc(OC)cc2)n1-c1ccc(Cl)cc1`, 162 °C; as for `CCOC(=O)c1cn(C2CC2)c2c(F)c(C(C#N)C(=O)OCC)c(F)c(F)c2c1=O` (configuration not stated), 98 to 100 °C.
As for `CN(CCO)C(=O)c1c(-c2ccc(C(C)(C)C)cc2)n(C)n(-c2ccc(C#N)cc2)c1=O`, the melting point is 210 to 213 °C.
As for `C=CCN1C2CCC3C1CCC2N3C(c1ccc(C(=O)N2CCCCC2)cc1)c1cccc(O)c1` (configuration not stated), the figure is 70 to 73 °C; as for `CCOCC1CN2CCC1CC2` (configuration not stated), 73 to 77 °C; as for `CCCn1nnc2c(C(N)=O)ncn2c1=O`, 167 °C.
The molecule `Cc1nc2cc(C(c3cccc(Cl)c3)n3ccnc3)ccc2[nH]1` (configuration not stated) came in with a melting point of 117 °C.
As for `C[Si](C)(CCO)Cc1ccccc1`, the figure is 132 to 133 °C.
Regarding `CCOC(=O)c1cc(-n2c(=O)ccn(C)c2=O)ccc1Cl`, the melting point fell in the range of 147 to 148 °C.
As for `O=C(c1ccc(Nc2ccnc3cc(C(F)(F)F)ccc23)cc1)N1CCN(S(=O)(=O)c2ccc(Cl)cc2)CC1`, the figure is 234 to 236 °C; as for `CN1CC[C@H](NC(=O)c2ccccc2)[C@H](c2ccccc2)C1` (relative stereo), 154 to 155 °C.
Consider `OC(c1ccc2c(c1)SCCN2)(C(F)(F)F)C(F)(F)F`, for which the melting point lay in the range of 99 to 100 °C.
As for `CS(=O)(=O)OCCc1ccc(-c2cccnc2)cc1`, the figure is 66 to 68 °C; as for `N#Cc1cnc2c(sc3c([N+](=O)[O-])cccc32)c1Cl`, 258 to 260 °C; as for `COc1cc(OCc2ccccc2)ccc1S(=O)(=O)Cl`, 95 °C.
As for `CCCc1c2oc(C#N)cc(=O)c2cc2c(=O)cc(C(=O)OCC)oc12`, the figure is 182 to 184 °C; as for `COc1cc(-c2csc(C)n2)cc2oc(=O)c(C)c(C)c12`, 149 to 150 °C.
In turn, `COC(=O)c1[nH]c(=O)[nH]c(=O)c1[N+](=O)[O-]` displayed a melting point of 229 to 230 °C.
As for `O=C1NCC(CCl)C1(c1ccccc1)c1ccccc1` (configuration not stated), the figure is 218 to 219 °C; as for `CNc1cc(Oc2ccc(Cl)cc2Cn2cncn2)ccc1[N+](=O)[O-]`, 150 °C.
As for `COc1ccc(N(c2ccc(C=Cc3ccc4ccc5cccc6ccc3c4c56)cc2)c2ccc(OC)cc2)cc1`, the figure is 160 °C; as for `CCc1nc2c(cnn2CC)c(NC2CCOCC2)c1CNC(=O)c1cc(C)cc(C(=O)NCc2ccc(C)c(Br)c2)c1`, 117 to 119 °C.
As for `CCOC(=O)c1ccc(N(C)Cc2ccc(Cl)cc2)cc1`, the figure is 106 to 107 °C; as for `CCCCCCCCCCCCCCN(C)c1ccc([N+](=O)[O-])cc1C(=O)O`, 100 to 101 °C.
`O=S(=O)(Cl)CCCCCCCc1ccc(OCc2ccccc2)cc1` returned a melting point of 33 to 35 °C.
As for `CCC(=O)NCCc1cnn2ccc3occc3c12`, the figure is 104 to 106 °C.

These data come from a melting point compilation (Tetko et al.; mined from patent text by program, amines drawn as free bases though some values may be those of a salt).
